{
  "source": "patent US10696726B2",
  "about": "“Insulin-incretin conjugates” (INDIANA UNIVERSITY RESEARCH AND TECHNOLOGY CORPORATION, priority 2013, dated 2020)",
  "key": {"insulin receptor [1]": {"biological_target": "T1, insulin receptor (Homo sapiens, UniProt P06213)", "experiment": "Insulin receptor binding assay (competition, scintillation proximity)", "details": "for Ratio: Table 3, IGF-1 receptor IC50 over insulin receptor IC50"}, "human IGF-1 receptor": {"biological_target": "human IGF-1 receptor (Homo sapiens, UniProt P08069)", "sequence (P08069 31-736 limits assumed)": "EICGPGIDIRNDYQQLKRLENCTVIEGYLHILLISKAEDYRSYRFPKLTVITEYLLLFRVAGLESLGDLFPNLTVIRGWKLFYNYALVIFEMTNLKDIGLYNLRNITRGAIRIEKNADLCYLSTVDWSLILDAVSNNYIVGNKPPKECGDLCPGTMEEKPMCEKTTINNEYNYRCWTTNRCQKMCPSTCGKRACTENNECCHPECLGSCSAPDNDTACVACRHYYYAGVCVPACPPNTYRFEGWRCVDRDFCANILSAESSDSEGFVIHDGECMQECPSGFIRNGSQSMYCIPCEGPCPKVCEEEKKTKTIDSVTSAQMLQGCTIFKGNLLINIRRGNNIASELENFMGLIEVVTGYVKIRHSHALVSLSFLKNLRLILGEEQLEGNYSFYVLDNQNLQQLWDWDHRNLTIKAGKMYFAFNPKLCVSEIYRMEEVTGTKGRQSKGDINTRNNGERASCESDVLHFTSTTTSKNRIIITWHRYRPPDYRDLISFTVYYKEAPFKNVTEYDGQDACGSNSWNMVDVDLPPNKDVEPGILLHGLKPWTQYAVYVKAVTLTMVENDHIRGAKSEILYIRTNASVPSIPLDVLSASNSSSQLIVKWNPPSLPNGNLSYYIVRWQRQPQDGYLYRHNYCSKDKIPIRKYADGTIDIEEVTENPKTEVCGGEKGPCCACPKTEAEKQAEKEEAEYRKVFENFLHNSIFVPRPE", "sequence (P08069 741-1367 partner limits assumed)": "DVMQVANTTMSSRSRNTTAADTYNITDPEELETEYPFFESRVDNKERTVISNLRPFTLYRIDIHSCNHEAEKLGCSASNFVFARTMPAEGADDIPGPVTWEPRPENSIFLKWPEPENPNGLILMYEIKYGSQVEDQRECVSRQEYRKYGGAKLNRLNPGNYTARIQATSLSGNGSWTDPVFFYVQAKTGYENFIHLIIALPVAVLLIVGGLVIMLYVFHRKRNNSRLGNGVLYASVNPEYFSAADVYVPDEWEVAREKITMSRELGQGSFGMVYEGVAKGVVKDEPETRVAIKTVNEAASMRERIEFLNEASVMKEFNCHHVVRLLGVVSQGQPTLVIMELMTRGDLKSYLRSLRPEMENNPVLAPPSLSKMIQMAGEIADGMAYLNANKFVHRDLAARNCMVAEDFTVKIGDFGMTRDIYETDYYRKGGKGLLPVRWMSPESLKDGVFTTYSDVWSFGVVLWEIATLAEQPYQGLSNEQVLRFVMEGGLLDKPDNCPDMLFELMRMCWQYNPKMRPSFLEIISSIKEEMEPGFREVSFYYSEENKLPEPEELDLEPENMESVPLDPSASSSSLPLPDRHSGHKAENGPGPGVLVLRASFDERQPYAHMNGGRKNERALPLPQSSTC", "experiment": "IGF-1 receptor binding assay (competition, scintillation proximity)", "details": "Table 3, relative to IGF-1 in the same test"}, "insulin receptor [2]": {"biological_target": "T1, insulin receptor", "experiment": "Insulin receptor phosphorylation assay in receptor transfected HEK293 cells", "format": "cell-based", "design": "expressed in transfected cells; host or cells: HEK293", "details": "FIGS. 10 and 11"}, "glucagon receptor": {"biological_target": "T2, glucagon receptor (Homo sapiens, UniProt P47871)", "T2 construct": "expressed in transfected cells; host or cells: HEK293", "experiment": "Glucagon functional assay, cAMP synthesis (luciferase reporter, HEK293 cells)", "format": "cell-based", "details": "FIG. 12"}},
  "note": "Values joined by “and” are separate entries in the source; they are usually repeats but may differ in a detail not shown here. Equal values may be shown once.",
  "data": [
    {"compound": "CC[C@H](C)[C@H](NC(=O)CN)C(=O)N[C@H](C(=O)N[C@@H](CC(=O)O)C(=O)N[C@@H](CCC(=O)O)C(=O)N[C@H]1CSSC[C@@H]2NC(=O)[C@H](CO)NC(=O)[C@H](CCCNC(=N)N)NC(=O)[C@H](Cc3ccccc3)NC(=O)[C@H](CSSC[C@H](NC(=O)[C@H](CC(C)C)NC(=O)[C@@H](NC(=O)[C@H](CCC(=O)O)NC(=O)[C@@H]3CCCN3C(=O)CN)[C@@H](C)O)C(=O)NCC(=O)N[C@@H](CO)C(=O)N[C@@H](Cc3c[nH]cn3)C(=O)N[C@@H](CC(C)C)C(=O)N[C@@H](C(C)C)C(=O)N[C@@H](CCC(=O)O)C(=O)N[C@@H](C)C(=O)N[C@@H](CC(C)C)C(=O)N[C@@H](Cc3ccc(O)cc3)C(=O)N[C@@H](CC(C)C)C(=O)N[C@@H](C(C)C)C(=O)N[C@H](C(=O)NCC(=O)N[C@@H](CC(=O)O)C(=O)N[C@@H](CCCNC(=N)N)C(=O)NCC(=O)N[C@@H](Cc3ccccc3)C(=O)N[C@@H](Cc3ccc(O)cc3)C(=O)N[C@@H](Cc3ccccc3)C(=O)N[C@@H](CC(N)=O)C(=O)N[C@@H](CCCCN)C(=O)N3CCC[C@H]3C(=O)N[C@H](C(N)=O)[C@@H](C)O)CSSC[C@@H](C(=O)N[C@@H](C)C(N)=O)NC(=O)[C@H](Cc3ccc(O)cc3)NC(=O)[C@H](CCSC)NC(=O)[C@H](CCC(=O)O)NC(=O)[C@H](CC(C)C)NC(=O)[C@H](CCCNC(=N)N)NC(=O)[C@H](CCCNC(=N)N)NC(=O)[C@H](CC(C)C)NC(=O)[C@H](CC(=O)O)NC2=O)NC1=O)C(C)C", "values": [
      {"measurement": "Ratio", "setting": "insulin receptor [1]", "result": 82.6}
    ]},
    {"compound": "CC[C@H](C)[C@H](NC(=O)CN)C(=O)N[C@H](C(=O)N[C@@H](CC(=O)O)C(=O)N[C@@H](CCC(=O)O)C(=O)N[C@H]1CSSC[C@@H]2NC(=O)[C@H](CO)NC(=O)[C@H](CCCNC(=N)N)NC(=O)[C@H](Cc3ccccc3)NC(=O)[C@H](CSSC[C@H](NC(=O)[C@H](CC(C)C)NC(=O)[C@@H](NC(=O)[C@H](CCC(=O)O)NC(=O)[C@@H]3CCCN3C(=O)CN)[C@@H](C)O)C(=O)NCC(=O)N[C@@H](C)C(=O)N[C@@H](CCC(=O)O)C(=O)N[C@@H](CC(C)C)C(=O)N[C@@H](C(C)C)C(=O)N[C@@H](CC(=O)O)C(=O)N[C@@H](C)C(=O)N[C@@H](CC(C)C)C(=O)N[C@@H](Cc3ccc(O)cc3)C(=O)N[C@@H](CC(C)C)C(=O)N[C@@H](C(C)C)C(=O)N[C@H](C(=O)NCC(=O)N[C@@H](CC(=O)O)C(=O)N[C@@H](CCCNC(=N)N)C(=O)NCC(=O)N[C@@H](Cc3ccccc3)C(=O)N[C@@H](Cc3ccc(O)cc3)C(=O)N[C@@H](Cc3ccccc3)C(=O)N[C@@H](CC(N)=O)C(=O)N[C@@H](CCCCN)C(=O)N3CCC[C@H]3C(=O)N[C@H](C(N)=O)[C@@H](C)O)CSSC[C@@H](C(=O)N[C@@H](C)C(N)=O)NC(=O)[C@H](Cc3ccc(O)cc3)NC(=O)[C@H](CCSC)NC(=O)[C@H](CCC(=O)O)NC(=O)[C@H](CC(C)C)NC(=O)[C@H](CCCNC(=N)N)NC(=O)[C@H](CCCNC(=N)N)NC(=O)[C@H](CC(C)C)NC(=O)[C@H](CC(=O)O)NC2=O)NC1=O)C(C)C", "note": "[IGF1 (Y^B16L^B17)]", "values": [
      {"measurement": "insulin receptor binding relative to native insulin (in words)", "setting": "insulin receptor [1]; FIGS. 2-4, Tables 1 and 2", "result": "highly potent agonists of the insulin receptor"},
      {"measurement": "% of Insulin Activity", "setting": "insulin receptor [1]; Table 2, relative to Insulin Standard", "result": 262, "unit": "%"}
    ]},
    {"compound": "CC[C@H](C)[C@H](NC(=O)CN)C(=O)N[C@H](C(=O)N[C@@H](CC(=O)O)C(=O)N[C@@H](CCC(=O)O)C(=O)N[C@H]1CSSC[C@@H]2NC(=O)[C@H](CO)NC(=O)[C@H](CCCNC(=N)N)NC(=O)[C@H](Cc3ccccc3)NC(=O)[C@H](CSSC[C@H](NC(=O)[C@H](CC(C)C)NC(=O)[C@H](Cc3c[nH]cn3)NC(=O)[C@H](CCC(N)=O)NC(=O)[C@H](CC(N)=O)NC(=O)[C@@H](NC(=O)[C@@H](N)Cc3ccccc3)C(C)C)C(=O)NCC(=O)N[C@@H](CO)C(=O)N[C@@H](Cc3c[nH]cn3)C(=O)N[C@@H](CC(C)C)C(=O)N[C@@H](C(C)C)C(=O)N[C@@H](CCC(=O)O)C(=O)N[C@@H](C)C(=O)N[C@@H](CC(C)C)C(=O)N[C@@H](Cc3ccc(O)cc3)C(=O)N[C@@H](CC(C)C)C(=O)N[C@@H](C(C)C)C(=O)N[C@H](C(=O)NCC(=O)N[C@@H](CC(=O)O)C(=O)N[C@@H](CCCNC(=N)N)C(=O)NCC(=O)N[C@@H](Cc3ccccc3)C(=O)N[C@@H](Cc3ccc(O)cc3)C(=O)N[C@@H](Cc3ccccc3)C(=O)N[C@@H](CC(N)=O)C(=O)N[C@@H](CCCCN)C(=O)N3CCC[C@H]3C(=O)N[C@H](C(N)=O)[C@@H](C)O)CSSC[C@@H](C(=O)N[C@@H](C)C(N)=O)NC(=O)[C@H](Cc3ccc(O)cc3)NC(=O)[C@H](CCSC)NC(=O)[C@H](CCC(=O)O)NC(=O)[C@H](CC(C)C)NC(=O)[C@H](CCCNC(=N)N)NC(=O)[C@H](CCCNC(=N)N)NC(=O)[C@H](CC(C)C)NC(=O)[C@H](CC(=O)O)NC2=O)NC1=O)C(C)C", "note": "[IGF-1 A: In (1-17)-IGF-1 B (18-30)]", "values": [
      {"measurement": "Ratio", "setting": "insulin receptor [1]", "result": 22.6},
      {"measurement": "Insulin Receptor % insulin (in test)", "setting": "insulin receptor [1]; Table 3, relative to insulin in the same test", "result": "14.0% and 11.3% and 20.1%"},
      {"measurement": "Insulin Receptor % native insulin activity (0.6 nM)", "setting": "insulin receptor [1]; Table 3, relative to native insulin taken as 0.6 nM", "result": "21.7% and 22.5% and 24.2%"},
      {"measurement": "IGF-1 Receptor % IGF-1 (in test)", "setting": "human IGF-1 receptor", "result": 0.9, "unit": "%"}
    ]},
    {"compound": "GLP-1: native GLP-1: GLP-1(7-36) amide SEQ ID NO: 703 or GLP-1(7-37) acid SEQ ID NO: 704 [reference compound]", "values": [
      {"measurement": "in vitro insulin receptor activity (EC50 values, in words)", "setting": "insulin receptor [2]", "result": "poor activity at the insulin receptor"},
      {"measurement": "in vitro glucagon receptor activity (EC50 values, in words)", "setting": "glucagon receptor", "result": "poor activity at the glucagon receptor"}
    ]}
  ]
}
